Measurements: patent US20160122320A1, “USEFUL COMBINATIONS OF MONOBACTAM ANTIBIOTICS WITH BETA-LACTAMASE INHIBITORS” (Basilea Pharmaceutica AG, priority 2005, published 2016)
Structures can show the parent of a compound that is named as a salt.

Tests used:
Assay in all cases: MIC, NCCLS broth microdilution
Assay type in all cases: cell-based
Enterobacter cloacae P99 = details: for MIC of antibiotic at fixed inhibitor concentration (4 mg/L): MIC of antibiotic compound 1 with the labelled bridged monobactam of formula II and clavulanate, 4 mg/L each; for MIC of antibiotic: antibiotic alone, no inhibitor
[1] = tested on: Pseudomonas aeruginosa 1973E; details: for MIC of antibiotic at fixed inhibitor concentration (4 mg/L): MIC of antibiotic compound 1 with the labelled bridged monobactam of formula II and clavulanate, 4 mg/L each; for MIC of antibiotic: antibiotic alone, no inhibitor
In short: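 Broth microdilution following NCCLS M7-A5, with final DMSO ≤1%. Plates were incubated overnight at 30° C. or 37° C. and growth was read by eye; MIC is the lowest concentration giving complete inhibition of visible growth. In combination tests the formula I compound was serially diluted while partner compounds were held at 4 μg/mL each.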

[2] = tested on: Stenotrophomonas malthophilia 1AC736; details: for MIC of antibiotic at fixed inhibitor concentration (4 mg/L): Stenotrophomonas malthophilia 1AC736, MIC of antibiotic compound 1 with the labelled bridged monobactam of formula II and clavulanate, 4 mg/L each; for MIC of antibiotic / MIC of antibiotic at fixed inhibitor concentration of 4 mg/L: Stenotrophomonas maltophilia 1AC736; for MIC of antibiotic: antibiotic alone, no inhibitor
[3] = tested on: Klebsiella pneumoniae CF104; details: for MIC of antibiotic at fixed inhibitor concentration (4 mg/L): MIC of antibiotic compound 1 with the labelled bridged monobactam of formula II and clavulanate, 4 mg/L each; for MIC of antibiotic: antibiotic alone, no inhibitor
Experimental: Antimicrobial activity of the compounds and of their combinations was determined against a selection of organisms according to the standard procedures described by the National Committee for Clinical Laboratory Standards (National Committee for Clinical Laboratory. Standards (2000). Methods for Dilution Antimicrobial Susceptibility Tests for Bacteria That Grow Aerobically-Fifth Edition: Approved Standard M7-A5. NCCLS, Wayne, Pa., USA).
In all cases the final concentration of DMSO incubated with the bacteria is less than or equal to 1%. […] Plates were incubated overnight at an appropriate temperature (30° C. or 37° C.) and optical densities assessed by eye. The MIC value is defined as the lowest compound concentration completely inhibiting visible growth of the test organism. When combinations between compounds of formula I with compounds of formula II and are evaluated the compounds of formula I are tested in dilution series as described above while the compounds of formula II and III-XIII were present in all wells at a constant concentration of 4 μg/mL each.

Serratia marcescens S6 = details: for MIC of antibiotic at fixed inhibitor concentration (4 mg/L): MIC of antibiotic compound 1 with the labelled bridged monobactam of formula II and clavulanate, 4 mg/L each; for MIC of antibiotic: antibiotic alone, no inhibitor
[4] = tested on: Pseudomonas aeruginosa MK1184; details: for MIC of antibiotic at fixed inhibitor concentration (4 mg/L): MIC of antibiotic compound 1 with the labelled bridged monobactam of formula II and clavulanate, 4 mg/L each; for MIC of antibiotic: antibiotic alone, no inhibitor
Acinetobacter sp. J2 = details: for MIC of antibiotic at fixed inhibitor concentration (4 mg/L): Acinetobacter sp. J2, MIC of antibiotic compound 1 with the labelled bridged monobactam of formula II and clavulanate, 4 mg/L each; for MIC of antibiotic / MIC of antibiotic at fixed inhibitor concentration of 4 mg/L: Acinetobacter baumannii J2; for MIC of antibiotic: antibiotic alone, no inhibitor
[5] = with clavulanate (clavulanic acid)

O=C(NCc1ccc(O)c(O)c1)N1CC[C@@H]2[C@H]1C(=O)N2S(=O)(=O)[O-].[Na+] [Compound 303, Sodium(1S,5R)-2-{N-[(3,4-dihydroxyphenyl)methyl]carbamoyl}-7-oxo-2,6-diazabicyclo[3.2.0]heptane-6-sulfonate]
MIC of antibiotic at fixed inhibitor concentration (4 mg/L) (Enterobacter cloacae P99): 32 µg/mL
MIC of antibiotic at fixed inhibitor concentration (4 mg/L) [1]: 4 µg/mL
MIC of antibiotic at fixed inhibitor concentration (4 mg/L) [2]: 0.125 µg/mL
MIC of antibiotic at fixed inhibitor concentration (4 mg/L) [3]: 2 µg/mL
MIC of antibiotic at fixed inhibitor concentration (4 mg/L) (Serratia marcescens S6): 0.5 µg/mL
MIC of antibiotic at fixed inhibitor concentration (4 mg/L) [4]: >32 µg/mL
MIC of antibiotic at fixed inhibitor concentration (4 mg/L) (Acinetobacter sp. J2): >32 µg/mL

COn1cc(O)c(=O)cc1CON=C(C(=O)N[C@@H]1C(=O)N(S(=O)(=O)O)[C@H]1C)c1csc(N)n1 [Compound 5, (3S,4S)-3-{2-(2-amino(1,3-thiazol-4-yl))-3-[(5-hydroxy-1-methoxy-4-oxo(2-hydropyridyl))methoxy]-3-azaprop-2-enoylamino}-4-methyl-2-oxoazetidinesulfonic acid]
MIC of antibiotic (Enterobacter cloacae P99): 32 µg/mL
MIC of antibiotic at fixed inhibitor concentration of 4 mg/L (Enterobacter cloacae P99; with 102 and clavulanate): 8 µg/mL
MIC of antibiotic [1]: >32 µg/mL
MIC of antibiotic at fixed inhibitor concentration of 4 mg/L ([1]; with 102 and clavulanate): >32 µg/mL
MIC of antibiotic [2]: 16 µg/mL
MIC of antibiotic at fixed inhibitor concentration of 4 mg/L ([2]; with 102 and clavulanate): 4 µg/mL
MIC of antibiotic [3]: >32 µg/mL
MIC of antibiotic at fixed inhibitor concentration of 4 mg/L ([3]; with 102 and clavulanate): 8 µg/mL
MIC of antibiotic (Serratia marcescens S6): 8 µg/mL
MIC of antibiotic at fixed inhibitor concentration of 4 mg/L (Serratia marcescens S6; with 102 and clavulanate): 1 µg/mL
MIC of antibiotic [4]: >32 µg/mL
MIC of antibiotic at fixed inhibitor concentration of 4 mg/L ([4]; with 102 and clavulanate): >32 µg/mL
MIC of antibiotic (Acinetobacter sp. J2): >32 µg/mL
MIC of antibiotic at fixed inhibitor concentration of 4 mg/L (Acinetobacter sp. J2; with 102 and clavulanate): 32 µg/mL

NC(=O)OCC1C(NC(=O)C(=NOCc2cc(=O)c(O)cn2O)c2csc(N)n2)C(=O)N1OCC(=O)O (stereo not drawn) [Compound 41]
MIC of antibiotic (Enterobacter cloacae P99): >32 µg/mL
MIC of antibiotic at fixed inhibitor concentration of 4 mg/L (Enterobacter cloacae P99; with 102 and clavulanate): 16 µg/mL
MIC of antibiotic at fixed inhibitor concentration of 4 mg/L (Enterobacter cloacae P99; with 324 and clavulanate): 16 µg/mL
MIC of antibiotic [1]: 4 µg/mL
MIC of antibiotic at fixed inhibitor concentration of 4 mg/L ([1]; with 102 and clavulanate): 4 µg/mL
MIC of antibiotic at fixed inhibitor concentration of 4 mg/L ([1]; with 324 and clavulanate): 8 µg/mL
MIC of antibiotic [2]: 1 µg/mL
MIC of antibiotic at fixed inhibitor concentration of 4 mg/L ([2]; with 102 and clavulanate): 2 µg/mL
MIC of antibiotic at fixed inhibitor concentration of 4 mg/L ([2]; with 324 and clavulanate): 1 µg/mL
MIC of antibiotic [3]: >32 µg/mL
MIC of antibiotic at fixed inhibitor concentration of 4 mg/L ([3]; with 102 and clavulanate): 0.5 µg/mL
MIC of antibiotic at fixed inhibitor concentration of 4 mg/L ([3]; with 324 and clavulanate): 0.5 µg/mL
MIC of antibiotic (Serratia marcescens S6): 1 µg/mL
MIC of antibiotic at fixed inhibitor concentration of 4 mg/L (Serratia marcescens S6; with 102 and clavulanate): 0.5 µg/mL
MIC of antibiotic at fixed inhibitor concentration of 4 mg/L (Serratia marcescens S6; with 324 and clavulanate): 0.5 µg/mL
MIC of antibiotic [4]: 4 µg/mL
MIC of antibiotic at fixed inhibitor concentration of 4 mg/L ([4]; with 102 and clavulanate): 4 µg/mL
MIC of antibiotic at fixed inhibitor concentration of 4 mg/L ([4]; with 324 and clavulanate): 4 µg/mL
MIC of antibiotic (Acinetobacter sp. J2): 16 µg/mL
MIC of antibiotic at fixed inhibitor concentration of 4 mg/L (Acinetobacter sp. J2; with 102 and clavulanate): 16 µg/mL
MIC of antibiotic at fixed inhibitor concentration of 4 mg/L (Acinetobacter sp. J2; with 324 and clavulanate): 4 µg/mL

O=C(C[n+]1cccc(-c2ccccc2)c1)N1CC[C@@H]2[C@H]1C(=O)N2S(=O)(=O)[O-] [Compound 124, (1S,5R)-7-oxo-2-[2-(3-phenylpyridinium)acetyl]-2,6-diazabicyclo[3.2.0]heptane-6-sulfonate, inner salt]
MIC of antibiotic at fixed inhibitor concentration (4 mg/L) (Enterobacter cloacae P99): 32 µg/mL
MIC of antibiotic at fixed inhibitor concentration (4 mg/L) [1]: 8 µg/mL
MIC of antibiotic at fixed inhibitor concentration (4 mg/L) [2]: 0.125 µg/mL
MIC of antibiotic at fixed inhibitor concentration (4 mg/L) [3]: 0.125 µg/mL
MIC of antibiotic at fixed inhibitor concentration (4 mg/L) (Serratia marcescens S6): 0.25 µg/mL
MIC of antibiotic at fixed inhibitor concentration (4 mg/L) [4]: 32 µg/mL
MIC of antibiotic at fixed inhibitor concentration (4 mg/L) (Acinetobacter sp. J2): >32 µg/mL

O=C(C[n+]1ccccc1)Nc1ccc(SCC(=O)N2CC[C@@H]3[C@H]2C(=O)N3S(=O)(=O)[O-])cc1 [Compound 204, (1S,5R)-7-oxo-2-{2-[4-(2-pyridiniumacetylamino)phenylthio]acetyl}-2,6-diazabicyclo[3.2.0]heptane-6-sulfonate, inner salt]
MIC of antibiotic at fixed inhibitor concentration (4 mg/L) (Enterobacter cloacae P99): 8 µg/mL
MIC of antibiotic at fixed inhibitor concentration (4 mg/L) [1]: 4 µg/mL
MIC of antibiotic at fixed inhibitor concentration (4 mg/L) [2]: 8 µg/mL
MIC of antibiotic at fixed inhibitor concentration (4 mg/L) [3]: 2 µg/mL
MIC of antibiotic at fixed inhibitor concentration (4 mg/L) (Serratia marcescens S6): 0.25 µg/mL
MIC of antibiotic at fixed inhibitor concentration (4 mg/L) [4]: 32 µg/mL
MIC of antibiotic at fixed inhibitor concentration (4 mg/L) (Acinetobacter sp. J2): 2 µg/mL

O=C(Nc1cccc(CO)c1)N1CC[C@@H]2[C@H]1C(=O)N2S(=O)(=O)[O-].[Na+] [Compound 321, Sodium(1S,5R)-2-{N-[3-(hydroxymethyl)phenyl]carbamoyl}-7-oxo-2,6-diazabicyclo[3.2.0]heptane-6-sulfonate]
MIC of antibiotic at fixed inhibitor concentration (4 mg/L) (Enterobacter cloacae P99): >32 µg/mL
MIC of antibiotic at fixed inhibitor concentration (4 mg/L) [1]: 4 µg/mL
MIC of antibiotic at fixed inhibitor concentration (4 mg/L) [2]: 0.125 µg/mL
MIC of antibiotic at fixed inhibitor concentration (4 mg/L) [3]: 1 µg/mL
MIC of antibiotic at fixed inhibitor concentration (4 mg/L) (Serratia marcescens S6): 0.25 µg/mL
MIC of antibiotic at fixed inhibitor concentration (4 mg/L) [4]: >32 µg/mL
MIC of antibiotic at fixed inhibitor concentration (4 mg/L) (Acinetobacter sp. J2): 16 µg/mL

NC(=O)c1c[n+](CC(=O)N2CC[C@@H]3[C@H]2C(=O)N3S(=O)(=O)[O-])ccc1N [Compound 126, (1S,5R)-2-[2-(4-amino-3-carbamoylpyridinium)acetyl]-7-oxo-2,6-diazabicyclo[3.2.0]heptane-6-sulfonate, inner salt]
MIC of antibiotic at fixed inhibitor concentration (4 mg/L) (Enterobacter cloacae P99): 32 µg/mL
MIC of antibiotic at fixed inhibitor concentration (4 mg/L) [1]: 8 µg/mL
MIC of antibiotic at fixed inhibitor concentration (4 mg/L) [2]: 0.125 µg/mL
MIC of antibiotic at fixed inhibitor concentration (4 mg/L) [3]: >32 µg/mL
MIC of antibiotic at fixed inhibitor concentration (4 mg/L) (Serratia marcescens S6): 0.125 µg/mL
MIC of antibiotic at fixed inhibitor concentration (4 mg/L) [4]: 16 µg/mL
MIC of antibiotic at fixed inhibitor concentration (4 mg/L) (Acinetobacter sp. J2): 2 µg/mL

CC1C(NC(=O)C(=NOCc2cc(=O)c(O)cn2O)c2cccc(N)n2)C(=O)N1S(=O)(=O)O (stereo not drawn) [Compound 20]
MIC of antibiotic (Enterobacter cloacae P99): >32 µg/mL
MIC of antibiotic at fixed inhibitor concentration of 4 mg/L (Enterobacter cloacae P99; with 102 and clavulanate): 16 µg/mL
MIC of antibiotic at fixed inhibitor concentration of 4 mg/L (Enterobacter cloacae P99; with 206 and clavulanate): 16 µg/mL
MIC of antibiotic at fixed inhibitor concentration of 4 mg/L (Enterobacter cloacae P99; with 501): >32 µg/mL
MIC of antibiotic at fixed inhibitor concentration of 4 mg/L (Enterobacter cloacae P99; [5]): >32 µg/mL
MIC of antibiotic [1]: 16 µg/mL
MIC of antibiotic at fixed inhibitor concentration of 4 mg/L ([1]; with 102 and clavulanate): 32 µg/mL
MIC of antibiotic at fixed inhibitor concentration of 4 mg/L ([1]; with 206 and clavulanate): 16 µg/mL
MIC of antibiotic at fixed inhibitor concentration of 4 mg/L ([1]; with 501): 16 µg/mL
MIC of antibiotic at fixed inhibitor concentration of 4 mg/L [1, 5]: 16 µg/mL
MIC of antibiotic [2]: 4 µg/mL
MIC of antibiotic at fixed inhibitor concentration of 4 mg/L ([2]; with 102 and clavulanate): 0.25 µg/mL
MIC of antibiotic at fixed inhibitor concentration of 4 mg/L ([2]; with 206 and clavulanate): 0.5 µg/mL
MIC of antibiotic at fixed inhibitor concentration of 4 mg/L ([2]; with 501): 0.25 µg/mL
MIC of antibiotic at fixed inhibitor concentration of 4 mg/L [2, 5]: 0.25 µg/mL
MIC of antibiotic [3]: >32 µg/mL
MIC of antibiotic at fixed inhibitor concentration of 4 mg/L ([3]; with 102 and clavulanate): 2 µg/mL
MIC of antibiotic at fixed inhibitor concentration of 4 mg/L ([3]; with 206 and clavulanate): 4 µg/mL
MIC of antibiotic at fixed inhibitor concentration of 4 mg/L ([3]; with 501): 16 µg/mL
MIC of antibiotic at fixed inhibitor concentration of 4 mg/L [3, 5]: 32 µg/mL
MIC of antibiotic (Serratia marcescens S6): 4 µg/mL
MIC of antibiotic at fixed inhibitor concentration of 4 mg/L (Serratia marcescens S6; with 102 and clavulanate): 0.5 µg/mL
MIC of antibiotic at fixed inhibitor concentration of 4 mg/L (Serratia marcescens S6; with 206 and clavulanate): 0.5 µg/mL
MIC of antibiotic at fixed inhibitor concentration of 4 mg/L (Serratia marcescens S6; with 501): 2 µg/mL
MIC of antibiotic at fixed inhibitor concentration of 4 mg/L (Serratia marcescens S6; [5]): 2 µg/mL
MIC of antibiotic [4]: >32 µg/mL
MIC of antibiotic at fixed inhibitor concentration of 4 mg/L ([4]; with 102 and clavulanate): 8 µg/mL
MIC of antibiotic at fixed inhibitor concentration of 4 mg/L ([4]; with 206 and clavulanate): >32 µg/mL
MIC of antibiotic at fixed inhibitor concentration of 4 mg/L ([4]; with 501): >32 µg/mL
MIC of antibiotic at fixed inhibitor concentration of 4 mg/L [4, 5]: >32 µg/mL
MIC of antibiotic (Acinetobacter sp. J2): >32 µg/mL
MIC of antibiotic at fixed inhibitor concentration of 4 mg/L (Acinetobacter sp. J2; with 102 and clavulanate): >32 µg/mL
MIC of antibiotic at fixed inhibitor concentration of 4 mg/L (Acinetobacter sp. J2; with 206 and clavulanate): >32 µg/mL
MIC of antibiotic at fixed inhibitor concentration of 4 mg/L (Acinetobacter sp. J2; with 501): <0.06 µg/mL
MIC of antibiotic at fixed inhibitor concentration of 4 mg/L (Acinetobacter sp. J2; [5]): >32 µg/mL
